From article PMC7614683, “A small molecule PI3Kα activator for cardioprotection and neuroregeneration” (Nature, 2023)
Like-named read-outs stand apart in the source and are kept apart here.

How the values were obtained:
Type in all cases: biochemical
[1] = target: T1, ATM (Homo sapiens, UniProt Q13315); assay: ATM in vitro kinase assay (Phos-tag gel); conditions: 200 μM 1938
T1 construct: made in house
Method: 133 protein kinases and 7 lipid kinases were counterscreened, with 1938 used at 1 μM, using the Adapta, Lantha and Z-LYTE assays (SelectScreen Kinase Profiling Service; Thermofisher – experimental details of these assays can be found here: https://www.thermofisher.com/uk/en/home/industrial/pharma-biopharma/drug-discovery-development/target-and-lead-identification-and-validation/kinasebiology/kinase-activity-assays.html. The tree represention in KinMap[59] generated courtesy of Cell Signaling Technology, Inc. (www.cellsignal.com). mTORC1 (mTOR/RAPTOR/LST8) protein complex and ATM kinase and substrates were produced as previously described[57],[60]. Screening of 1938 was conducted using SuperSep Phos-Tag 50 μmol/l 100 x 100 x 6.6 mm 17-well (192-18001/199-18011) gels. For ATM assays, 100 nM ATM was incubated for 30 min at 30°C with 5 μM GST-p53 and 1 mM ATP, in the absence or presence of 200 μM 1938 in ATM Kinase Buffer (50 mM HEPES pH 7.5, 100 mM NaCl, 10% glycerol, 2 mM […], 5 mM MgCl2). As a positive control for ATM activation, the same reaction was carried out with 100 nM ATM/5 μM GST-p53/1 mM ATP in the presence of 100 nM Mre11-Rad50-Nbs1 (MRN) complex, a known activator of ATM[61]. […] Gels were then stained using InstantBlue™ Coomassie, and quantified using BioRad Image Lab Software. […]

[2] = target: T2, protein kinases of the Z-LYTE panel (Homo sapiens, UniProt Q9UHD2); assay: SelectScreen Z-LYTE kinase activity assay (SI Table 6)
T2 sequence (Q9UHD2 1-729): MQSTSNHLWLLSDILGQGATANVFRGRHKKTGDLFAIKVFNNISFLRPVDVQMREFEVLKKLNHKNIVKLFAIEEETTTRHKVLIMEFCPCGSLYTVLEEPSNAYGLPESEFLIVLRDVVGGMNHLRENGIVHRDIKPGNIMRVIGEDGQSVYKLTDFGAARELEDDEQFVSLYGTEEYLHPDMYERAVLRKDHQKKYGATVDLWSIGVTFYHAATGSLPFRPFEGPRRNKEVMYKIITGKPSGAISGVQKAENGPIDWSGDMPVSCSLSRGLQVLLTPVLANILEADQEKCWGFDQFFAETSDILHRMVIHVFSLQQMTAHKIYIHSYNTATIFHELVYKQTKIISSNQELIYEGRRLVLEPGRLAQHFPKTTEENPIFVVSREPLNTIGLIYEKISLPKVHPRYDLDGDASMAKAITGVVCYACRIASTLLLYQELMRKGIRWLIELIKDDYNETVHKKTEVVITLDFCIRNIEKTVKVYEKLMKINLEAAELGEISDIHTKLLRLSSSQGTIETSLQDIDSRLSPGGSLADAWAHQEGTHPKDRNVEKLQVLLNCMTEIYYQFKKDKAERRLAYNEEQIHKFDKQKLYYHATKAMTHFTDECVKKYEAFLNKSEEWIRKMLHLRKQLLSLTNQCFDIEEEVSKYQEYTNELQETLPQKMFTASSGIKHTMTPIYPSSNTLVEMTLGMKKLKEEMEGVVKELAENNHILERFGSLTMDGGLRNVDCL
Procedure, shortened: (§1)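 A single compound concentration of 1 μM was profiled in the vendor's Adapta, Lantha and Z-LYTE kinase assays. In gel-based follow-ups with 200 μM compound, phosphorylation was resolved on Phos-tag SDS-PAGE and quantified by Coomassie. The ATM run used 1 mM ATP with GST-p53 for 30 min, and the mTORC1 run used 250 μM ATP with 4E-BP1 for 3 h.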

[3] = target: T3, protein kinases of the Z-LYTE panel (Homo sapiens, UniProt P54762); assay: as above
T3 sequence (P54762 18-984): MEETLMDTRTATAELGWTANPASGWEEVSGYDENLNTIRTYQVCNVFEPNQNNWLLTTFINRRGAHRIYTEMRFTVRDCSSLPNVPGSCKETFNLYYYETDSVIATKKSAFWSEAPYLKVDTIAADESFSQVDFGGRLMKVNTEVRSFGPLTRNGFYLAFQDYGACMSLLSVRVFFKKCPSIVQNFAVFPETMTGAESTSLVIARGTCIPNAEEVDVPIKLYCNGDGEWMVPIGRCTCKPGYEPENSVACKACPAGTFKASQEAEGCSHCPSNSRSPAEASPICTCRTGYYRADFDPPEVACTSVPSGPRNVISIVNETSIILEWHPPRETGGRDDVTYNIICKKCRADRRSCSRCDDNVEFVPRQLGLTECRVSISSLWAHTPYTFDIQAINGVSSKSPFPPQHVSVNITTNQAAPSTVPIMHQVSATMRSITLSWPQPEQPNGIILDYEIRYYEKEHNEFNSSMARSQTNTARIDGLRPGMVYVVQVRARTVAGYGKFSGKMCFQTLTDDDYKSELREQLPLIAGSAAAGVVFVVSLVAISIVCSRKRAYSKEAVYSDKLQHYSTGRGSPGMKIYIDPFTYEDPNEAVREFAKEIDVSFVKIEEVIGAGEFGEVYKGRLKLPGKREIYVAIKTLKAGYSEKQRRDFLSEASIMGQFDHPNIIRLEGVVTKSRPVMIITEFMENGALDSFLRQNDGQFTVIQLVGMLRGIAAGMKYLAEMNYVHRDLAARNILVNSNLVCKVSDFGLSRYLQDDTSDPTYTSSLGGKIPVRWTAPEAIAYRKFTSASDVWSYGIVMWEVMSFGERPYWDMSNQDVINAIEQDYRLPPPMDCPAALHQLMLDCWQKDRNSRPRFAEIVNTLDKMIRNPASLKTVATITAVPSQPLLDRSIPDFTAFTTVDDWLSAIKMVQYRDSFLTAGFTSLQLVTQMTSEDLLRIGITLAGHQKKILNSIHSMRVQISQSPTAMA
Procedure, shortened: as §1

T1 sequence (Q13315 whole entry): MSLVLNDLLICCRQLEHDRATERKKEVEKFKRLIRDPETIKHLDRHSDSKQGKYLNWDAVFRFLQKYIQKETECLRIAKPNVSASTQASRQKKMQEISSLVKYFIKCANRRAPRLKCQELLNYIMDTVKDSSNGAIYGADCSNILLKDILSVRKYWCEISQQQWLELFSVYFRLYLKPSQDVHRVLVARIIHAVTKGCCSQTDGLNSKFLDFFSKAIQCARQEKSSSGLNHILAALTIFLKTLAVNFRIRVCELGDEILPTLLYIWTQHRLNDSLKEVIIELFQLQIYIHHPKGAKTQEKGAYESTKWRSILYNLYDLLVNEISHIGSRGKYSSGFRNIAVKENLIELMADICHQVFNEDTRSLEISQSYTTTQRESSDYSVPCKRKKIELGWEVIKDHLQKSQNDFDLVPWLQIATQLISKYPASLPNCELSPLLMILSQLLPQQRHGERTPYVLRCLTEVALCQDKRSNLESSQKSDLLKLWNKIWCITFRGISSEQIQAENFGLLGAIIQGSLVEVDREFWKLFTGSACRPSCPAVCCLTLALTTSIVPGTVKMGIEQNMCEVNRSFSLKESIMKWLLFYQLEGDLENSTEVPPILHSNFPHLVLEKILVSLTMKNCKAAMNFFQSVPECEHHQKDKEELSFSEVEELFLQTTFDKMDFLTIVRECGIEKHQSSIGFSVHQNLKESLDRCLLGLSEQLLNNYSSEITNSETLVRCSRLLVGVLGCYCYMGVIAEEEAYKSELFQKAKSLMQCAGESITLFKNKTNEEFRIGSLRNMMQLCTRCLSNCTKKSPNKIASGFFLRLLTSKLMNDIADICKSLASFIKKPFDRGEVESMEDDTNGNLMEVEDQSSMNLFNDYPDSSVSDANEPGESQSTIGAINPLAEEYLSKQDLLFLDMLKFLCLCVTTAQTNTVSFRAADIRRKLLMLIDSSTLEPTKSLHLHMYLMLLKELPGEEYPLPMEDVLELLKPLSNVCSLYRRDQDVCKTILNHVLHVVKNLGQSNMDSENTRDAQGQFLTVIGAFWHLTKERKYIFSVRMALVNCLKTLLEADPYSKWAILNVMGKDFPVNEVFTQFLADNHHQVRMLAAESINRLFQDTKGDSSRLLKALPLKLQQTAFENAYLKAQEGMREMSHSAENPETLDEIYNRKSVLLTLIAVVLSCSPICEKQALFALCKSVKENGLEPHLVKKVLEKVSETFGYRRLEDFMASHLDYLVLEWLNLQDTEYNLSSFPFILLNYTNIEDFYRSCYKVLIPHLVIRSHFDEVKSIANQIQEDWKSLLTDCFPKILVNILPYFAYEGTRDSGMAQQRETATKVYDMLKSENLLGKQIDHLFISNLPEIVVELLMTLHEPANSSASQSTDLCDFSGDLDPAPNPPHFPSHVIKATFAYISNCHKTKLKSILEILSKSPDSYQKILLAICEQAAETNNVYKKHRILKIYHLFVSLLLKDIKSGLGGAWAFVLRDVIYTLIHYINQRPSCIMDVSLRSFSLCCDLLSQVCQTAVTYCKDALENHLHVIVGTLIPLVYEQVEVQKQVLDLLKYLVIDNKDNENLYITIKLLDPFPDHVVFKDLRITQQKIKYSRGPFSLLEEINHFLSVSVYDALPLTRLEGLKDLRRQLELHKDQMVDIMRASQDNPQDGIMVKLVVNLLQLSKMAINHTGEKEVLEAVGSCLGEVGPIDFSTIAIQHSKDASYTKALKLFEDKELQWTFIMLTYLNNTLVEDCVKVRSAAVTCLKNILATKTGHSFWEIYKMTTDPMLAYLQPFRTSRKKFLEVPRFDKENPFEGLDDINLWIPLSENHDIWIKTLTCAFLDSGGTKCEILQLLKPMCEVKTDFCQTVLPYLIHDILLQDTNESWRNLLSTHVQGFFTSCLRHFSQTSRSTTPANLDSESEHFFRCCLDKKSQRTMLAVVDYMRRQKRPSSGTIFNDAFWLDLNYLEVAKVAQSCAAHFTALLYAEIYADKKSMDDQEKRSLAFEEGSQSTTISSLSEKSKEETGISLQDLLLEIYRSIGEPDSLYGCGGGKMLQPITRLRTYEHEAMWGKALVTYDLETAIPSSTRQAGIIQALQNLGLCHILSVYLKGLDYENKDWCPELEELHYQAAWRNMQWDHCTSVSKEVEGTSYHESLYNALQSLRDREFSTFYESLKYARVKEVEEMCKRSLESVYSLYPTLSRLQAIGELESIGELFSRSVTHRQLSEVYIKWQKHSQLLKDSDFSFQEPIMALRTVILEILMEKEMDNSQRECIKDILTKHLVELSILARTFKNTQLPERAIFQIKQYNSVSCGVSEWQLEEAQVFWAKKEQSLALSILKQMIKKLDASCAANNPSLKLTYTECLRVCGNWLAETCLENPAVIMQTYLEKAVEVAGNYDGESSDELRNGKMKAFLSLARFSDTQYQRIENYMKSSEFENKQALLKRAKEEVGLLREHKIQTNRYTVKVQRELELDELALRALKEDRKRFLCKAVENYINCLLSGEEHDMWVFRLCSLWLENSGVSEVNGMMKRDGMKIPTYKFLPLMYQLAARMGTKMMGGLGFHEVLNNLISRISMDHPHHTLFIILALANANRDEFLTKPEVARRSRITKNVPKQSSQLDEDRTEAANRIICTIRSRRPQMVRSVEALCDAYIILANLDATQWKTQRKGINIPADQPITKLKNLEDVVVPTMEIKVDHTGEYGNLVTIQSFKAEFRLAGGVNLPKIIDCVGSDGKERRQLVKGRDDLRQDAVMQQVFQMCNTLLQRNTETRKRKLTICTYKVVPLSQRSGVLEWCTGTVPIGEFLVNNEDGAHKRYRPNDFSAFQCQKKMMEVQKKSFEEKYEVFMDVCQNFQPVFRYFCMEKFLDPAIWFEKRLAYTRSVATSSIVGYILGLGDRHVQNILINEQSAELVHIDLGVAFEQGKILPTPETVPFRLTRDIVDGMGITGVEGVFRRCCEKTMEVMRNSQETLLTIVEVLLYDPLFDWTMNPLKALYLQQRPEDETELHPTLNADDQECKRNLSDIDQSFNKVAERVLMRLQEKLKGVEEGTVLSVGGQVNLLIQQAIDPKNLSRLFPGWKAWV

`CCN1CCN(c2ccc(Nc3cc(Nc4cccc5c4N(C(C)=O)CC5)ccn3)cc2)CC1` [Compound 1938] was tested, and the “effect on ATM activity” value [1] was “did not affect the activity”, the inhibition at 1 µM ([2]; read-out: % Inhibition Point 1) was 4% and the inhibition at 1 µM ([2]; read-out: % Inhibition Point 2) was 7.54%. For the same molecule, the inhibition at 1 µM ([2]; read-out: % Inhibition mean) was 6%, the inhibition at 1 µM ([3]; read-out: % Inhibition Point 1) was 11% and the inhibition at 1 µM ([3]; read-out: % Inhibition Point 2) was 11%. It also gave an inhibition at 1 µM ([3]; read-out: % Inhibition mean) of 11%.
